Test results: ChEMBL document CHEMBL1201862, “PubChem BioAssay data set” (2004)
The source made the active and inactive calls. For most assays here, no stated cut-off is given here; in the data, actives have a measured EC50 and inactives only a lower limit.

Legend:
[1] = target: T1, Heat shock factor protein 1 (Mus musculus, UniProt P38532); test: enhancement of HSF1-driven luciferase signal – cell-based, NIH3T3, luminescence, dose retest, confirmation (AID 435004); type: functional;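 further: stress induced by proteasome inhibitor MG132 added 30 min after compound; luciferase reporter driven by HSF1 response element in NIH3T3 cells; actives raise luminescence as potentiators of the MG132 stress response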
T1 sequence (P38532 whole entry): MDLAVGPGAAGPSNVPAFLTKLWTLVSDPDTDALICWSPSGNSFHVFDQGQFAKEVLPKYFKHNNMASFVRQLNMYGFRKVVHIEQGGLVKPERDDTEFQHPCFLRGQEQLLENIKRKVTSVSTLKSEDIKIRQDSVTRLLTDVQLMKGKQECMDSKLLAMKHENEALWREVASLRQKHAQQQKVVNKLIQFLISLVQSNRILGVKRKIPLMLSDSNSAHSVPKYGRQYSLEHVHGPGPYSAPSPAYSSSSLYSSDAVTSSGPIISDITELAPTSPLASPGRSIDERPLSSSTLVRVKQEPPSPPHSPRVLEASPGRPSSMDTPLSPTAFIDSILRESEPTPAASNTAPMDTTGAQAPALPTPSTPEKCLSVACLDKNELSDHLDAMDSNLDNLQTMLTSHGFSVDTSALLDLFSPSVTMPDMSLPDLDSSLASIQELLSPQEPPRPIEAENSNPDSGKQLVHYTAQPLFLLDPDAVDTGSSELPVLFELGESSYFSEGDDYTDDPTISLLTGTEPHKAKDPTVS

[2] = Luminescence Cell-Based Dose Response HTS to Identify Activators of Luciferase Translation or Activity in H4 […] Cells. [Related pubchem assays: 1829 (Project Summary), 1814 (Primary HTS)]; type: functional
[3] = Luminescence Cell-Based Dose Confirmation HTS to Identify Activators of 5'UTR Stem-Loop Driven Alpha-Synuclein mRNA Translation in H4 Neuroglioblastoma Cells. [Related pubchem assays: 1829 (Project Summary), 1814 (Primary HTS)]; type: functional
H4 = test: Luminescence Cell-Based Dose Response HTS to Identify Activators of 5'UTR Stem-Loop Driven Prion Protein mRNA Translation in H4 Neuroglioblastoma Cells. [Related pubchem assays: 1829 (Project Summary), 1814 (Primary HTS)]; type: functional; settings: Homo sapiens
[4] = NIH-3T3 fibroblast cytotoxicity, dose response, cytotoxicity control, cell-based, fluorescence, Alamar Blue, secondary assay (AID 2327); type: functional;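 further: NIH-3T3 mouse fibroblasts cultured with fluconazole at 8 µg/mL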
Streptococcus = test: GAS UMAA2166 growth inhibition – luminescence, BacTiterGlo, counter-screen for streptokinase expression inhibitor project, dose response (AID 1915); type: functional, organism-based;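 further: potency for reduction of bacterial viability or growth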
[5] = system: Streptococcus sp. 'group A'; test: Streptococcus pyogenes SK(-)GAS viability under kanamycin – luminescence, BacTiterGlo, confirmation, counter-screen for streptokinase expression inhibitor project, dose response (AID 1900); type: functional, organism-based
Cytochrome P450 2C9 = Cytochrome P450 2C9 (Homo sapiens, UniProt P11712)
[6] = target: T2, Corticotropin-releasing factor receptor 2/Corticotropin-releasing factor-binding protein (Homo sapiens, UniProt P24387+Q13324); test: activators of CRF receptor 2 with binding protein – uHTS hits, confirmation (AID 602473); type: functional; settings: read-out: EC50_Mean
T2 sequence (Q13324 whole entry): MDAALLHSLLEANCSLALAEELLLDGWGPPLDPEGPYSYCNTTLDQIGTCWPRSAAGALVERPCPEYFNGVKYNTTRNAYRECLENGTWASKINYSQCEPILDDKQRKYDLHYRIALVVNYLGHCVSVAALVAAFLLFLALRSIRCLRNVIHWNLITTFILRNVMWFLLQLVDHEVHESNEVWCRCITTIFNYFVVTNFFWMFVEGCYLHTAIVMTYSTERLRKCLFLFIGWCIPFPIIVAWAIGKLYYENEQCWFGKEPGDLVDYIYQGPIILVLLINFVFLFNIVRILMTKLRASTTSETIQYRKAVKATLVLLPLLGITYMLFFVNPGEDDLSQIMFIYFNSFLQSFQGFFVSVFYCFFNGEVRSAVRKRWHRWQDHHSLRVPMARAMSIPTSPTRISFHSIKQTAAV
T2 sequence (P24387 whole entry): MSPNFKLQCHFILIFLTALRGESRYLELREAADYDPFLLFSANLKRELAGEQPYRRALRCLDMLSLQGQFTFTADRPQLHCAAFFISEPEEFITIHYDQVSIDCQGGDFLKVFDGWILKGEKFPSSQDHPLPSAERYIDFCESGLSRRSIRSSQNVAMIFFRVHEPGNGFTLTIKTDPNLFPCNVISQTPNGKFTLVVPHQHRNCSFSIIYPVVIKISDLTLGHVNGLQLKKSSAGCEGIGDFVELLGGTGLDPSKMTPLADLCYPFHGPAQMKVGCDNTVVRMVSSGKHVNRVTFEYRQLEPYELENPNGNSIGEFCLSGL

[7] = target: T1, Heat shock factor protein 1; test: decrease of HSF1-responsive luciferase luminescence – cell-based, NIH3T3, dose retest, confirmation (AID 2382); type: functional;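 further: NIH3T3 fibroblasts with HSF1-driven luciferase reporter stressed by proteasome inhibitor MG132; luminescence from HSF1-driven luciferase expression after 8 hours of MG132 stress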

Sequence of Cytochrome P450 2C9 (P11712 whole entry): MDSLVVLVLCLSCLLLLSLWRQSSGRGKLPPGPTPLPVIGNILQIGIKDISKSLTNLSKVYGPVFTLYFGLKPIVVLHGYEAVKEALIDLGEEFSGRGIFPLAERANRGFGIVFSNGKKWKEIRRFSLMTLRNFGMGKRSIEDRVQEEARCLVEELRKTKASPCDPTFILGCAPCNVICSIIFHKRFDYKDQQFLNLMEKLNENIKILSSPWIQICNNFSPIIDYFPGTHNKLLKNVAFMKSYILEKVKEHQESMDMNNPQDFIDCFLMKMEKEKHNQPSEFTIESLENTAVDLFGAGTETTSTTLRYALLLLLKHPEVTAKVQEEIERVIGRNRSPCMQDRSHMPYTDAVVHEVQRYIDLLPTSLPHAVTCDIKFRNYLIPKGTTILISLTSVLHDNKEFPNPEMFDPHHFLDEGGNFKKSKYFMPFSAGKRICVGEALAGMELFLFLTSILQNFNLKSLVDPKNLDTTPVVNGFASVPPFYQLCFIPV

SMILES	EC50 [1]	EC50 [2]	EC50 [3]	EC50 (H4)	also measured
C=CCSC1=C(C#N)C(c2cccc(OC)c2)CC(=O)N1 (stereo unspecified)	> 260 µM (inactive)	–	–	–	–
CC(=O)C1=NOC(CNc2ncc(C(F)(F)F)cc2Cl)C1 (stereo unspecified)	–	17 µM (active)	15.7 µM (active)	16.2 µM (active)	–
CC(=O)c1ccc(N2CCN(C(=O)c3[nH]nc4ccccc34)CC2)cc1	> 260 µM (inactive)	–	–	–	–
CC(=O)N1c2ccc(S(=O)(=O)N3CCC(C(=O)NCc4ccccc4Cl)CC3)cc2CC1C (stereo unspecified)	–	> 120 µM (not active)	> 120 µM (not active)	> 120 µM (not active)	–
Cc1cc(C)n(-c2nc3ccccc3nc2N2CCN(C(=O)c3ccc(F)cc3)CC2)n1	> 260 µM (inactive)	–	–	–	–
COc1ccc(CN(C)Cc2c(O)ccc3ccccc23)cc1	38.8 µM (active)	–	–	–	–
Cc1ccc2nsnc2c1NC(=O)COc1ccccc1F	–	–	–	–	EC50 [4]: > 150 µM (inconclusive)
CCC1Oc2ccc(C)cc2N(Cc2cccc(C)c2)C1=O (stereo unspecified)	> 260 µM (inactive)	–	–	–	–
COc1ccc(NC(=O)C(NCC(C)C)c2ccccc2)cc1Cl (stereo unspecified)	> 260 µM (inactive)	–	–	–	–
CN(Cc1ccc(OC(F)F)cc1)Cc1nc(O)c2cc(Br)cc(Br)c2n1	–	–	–	–	EC50 (Streptococcus): > 150 µM (not active); EC50 [5]: 4.31 µM (active)
CCCSc1nnc2n(-c3ccccc3OC)c(=O)c3c4c(sc3n12)CCC4	> 260 µM (inactive)	–	–	–	–
CCn1c(SCC(=O)Nc2ccc(C(C)=O)cc2)nc2nc3c(cc2c1=O)COC(C)(C)C3	–	32.9 µM (active)	> 120 µM (not active)	12.8 µM (active)	–
CCOc1ccc(NC(=O)C(S)=NC2CCCCC2)cc1	–	21.1 µM (active)	61.6 µM (active)	11 µM (active)	–
S=C(c1cn(Cc2ccc(Br)cc2)c2ccccc12)N1CCOCC1	> 260 µM (inactive)	–	–	–	–
O=C(NN=C1C2CC3CC1CC(Cl)(C3)C2)c1ccccn1	–	> 120 µM (not active)	> 120 µM (not active)	> 120 µM (not active)	–
Nc1c(-c2ccsc2)cnc2ncnn12	> 260 µM (inactive)	–	–	–	–
CCOc1ccc(N2C(=O)/C(=C\NNC(=O)C3COc4ccccc4O3)c3ccccc3C2=O)cc1 (stereo unspecified)	–	–	–	–	EC50 (Streptococcus): 5.75 µM (active); EC50 [5]: 1.63 µM (active)
CC(O)(CS(=O)(=O)Cc1ccccc1Cl)C(=O)Nc1cccc(C(F)(F)F)c1 (stereo unspecified)	–	–	–	–	AC50 (Cytochrome P450 2C9): 11.2 µM (inconclusive)
COC(=O)C1=CN(c2ccc(F)cc2)C=C(C(=O)OC)C1c1cccc(Br)c1	> 260 µM (inactive)	–	–	–	–
Cc1nc(C(=N)NOC(=O)Cc2ccccc2)no1	> 260 µM (inactive)	–	–	–	–
CN=C(S)NCCC(c1ccccc1)c1ccccc1	> 260 µM (inactive)	–	–	–	–
CCOc1ccc(-n2c(=S)sc3c(O)nc(SCC(=O)NC(C)CC)nc32)cc1 (stereo unspecified)	> 260 µM (inactive)	–	–	–	–
COc1ccc(C(NC(=O)c2ccc(O)nc2)C(=O)Nc2ccc(C(C)C)cc2)cc1 (stereo unspecified)	–	–	–	–	EC50 [6]: > 53 µM (inactive); EC50 [7]: > 195 µM (not active)
COC(=O)c1ccc(OC(=O)CCN2C(=O)C3CCCCC3C2=O)cc1 (stereo unspecified)	> 260 µM (inactive)	–	–	–	–
C=CCn1c(C)cc(C(=O)CSc2nc(N)cc(N)n2)c1C	> 260 µM (inactive)	–	–	–	–
CC(C)CC1NC(=O)N(CC(=O)c2ccc3c(c2)OCCO3)C1=O (stereo unspecified)	–	1.48 µM (active)	0.298 µM (active)	6.39 µM (active)	–
Cc1nn(CC(=O)c2ccccc2Cl)c(C)c1[N+](=O)[O-]	–	15.8 µM (active)	38.2 µM (active)	25.4 µM (active)	–

SMILES	EC50 [1]	EC50 [2]	EC50 [3]	EC50 (H4)	also measured
O=C(COc1ccccc1)NC(=S)Nc1cccc2cc(O)ccc12	> 260 µM (inactive)	–	–	–	–
CC1=NC(=O)C(N=Nc2cccc(O)c2)N1c1ccccc1 (stereo unspecified)	–	13.7 µM (active)	15.5 µM (active)	20.2 µM (active)	–
CC(=O)N1CCc2cc(S(=O)(=O)NCCC(=O)Nc3ccc4c(c3)OCCO4)ccc21	–	9.85 µM (active)	17.4 µM (active)	25.6 µM (active)	–
Clc1ccc2c(c1)[C@H]1OCC[C@H]1[C@@H](c1ccco1)N2	–	10.9 µM (active)	19.9 µM (active)	9.48 µM (active)	–
COc1ccc(COc2cc(-c3cccc(OC)c3)nc3ccc(NC(=O)C(C)C)cc23)cc1	–	> 120 µM (not active)	> 120 µM (not active)	> 120 µM (not active)	–
Cc1cccc(CCNc2nc3ccc(C)cc3n3cnnc23)c1	–	33.2 µM (active)	0.258 µM (active)	7.16 µM (active)	–
N#CCCn1c(=O)c(-c2cccc(C#N)c2)nc2cnc(Oc3cccc(Cl)c3)nc21	–	–	–	–	AC50 (Cytochrome P450 2C9): 12.6 µM (inconclusive)
Nn1c(SCC(=O)N2CCOCC2)nnc1C1CC1	> 260 µM (inactive)	–	–	–	–
CC(C(=O)c1c[nH]c2ccccc12)N1CCSCC1 (stereo unspecified)	–	–	–	–	AC50 (Cytochrome P450 2C9): 31.6 µM (inconclusive)
Cc1nn(C(=O)c2ccoc2C)c(N)c1-c1ccccc1	–	26.9 µM (active)	5.93 µM (active)	21.6 µM (active)	–
CCn1c(Cn2nnc(-c3ccccc3)n2)nnc1SCC(=O)Nc1ccc(C(C)=O)cc1	–	71.4 µM (active)	> 120 µM (not active)	16.1 µM (active)	–
Cc1ccc(-c2nc(-c3cccnc3)no2)c(C)c1	–	–	–	–	EC50 [4]: > 150 µM (inactive)
CCOC(=O)c1ccc(NC(=O)CCS(=O)(=O)c2ccc(Br)s2)cc1	> 260 µM (inactive)	–	–	–	–
COc1cccc(-c2csc(NC(=O)Nc3ccccc3)n2)c1	–	11.1 µM (active)	> 120 µM (not active)	18.9 µM (active)	EC50 [7]: > 195 µM (not active)
Cn1ncc2c(Nc3ccc(Br)cc3)nc(Nc3ccc(Br)cc3)nc21	–	–	–	–	EC50 (Streptococcus): 2.38 µM (active); EC50 [5]: 1.01 µM (active)
O=C(O)CCc1ccc(-c2ccc(Cl)cc2)n1CCC(=O)O	–	–	–	–	AC50 (Cytochrome P450 2C9): 31.6 µM (inconclusive)
NC(=NOC(=O)c1cccc([N+](=O)[O-])c1)c1cccnc1	–	7.46 µM (inconclusive)	3.61 µM (active)	> 120 µM (not active)	–
COc1ccc(-c2nnc3ccc(SCC(=O)NCC4CCCO4)nn23)cc1 (stereo unspecified)	> 260 µM (inactive)	–	–	–	–
Cc1ccc(C(=O)NNC(=O)c2ccccc2-n2cccc2)cc1	> 260 µM (inactive)	–	–	–	–
CC(=O)Nc1ccc(N2C(=O)C3C4CC(=O)C(c5ccccc54)C3C2=O)cc1 (stereo unspecified)	> 260 µM (inactive)	–	–	–	–
O=S(=O)(c1ccc(Cl)cc1)N1CCC2(CC1)OCCN2S(=O)(=O)c1cccs1	227 µM (active)	–	–	–	–
COc1ccc(OC)c(S(=O)(=O)Nc2ccccc2O)c1	> 260 µM (inactive)	–	–	–	–
CCOC(=O)c1c(C)n[nH]c1N/N=C/c1cccnc1	–	14.7 µM (active)	> 120 µM (not active)	> 120 µM (not active)	–
O=c1[nH]c2ccccc2c2cn(-c3ccccc3)nc12	126 µM (active)	–	–	–	–
CC1(C)C2CC=C(/C=N/NC(=O)c3ccc(Cl)cc3)C1C2 (stereo unspecified)	–	12.4 µM (active)	> 120 µM (not active)	> 120 µM (not active)	–
Cc1nn(-c2ccc(Cl)cc2)c(O)c1/C=N/n1c(C)nc2ccccc2c1=O	–	–	–	–	EC50 (Streptococcus): 7.22 µM (active); EC50 [5]: 3.48 µM (active)
CC/C(=N/Cc1ccc(Cl)c(Cl)c1)c1nc(-c2ccco2)oc1O	20 µM (active)	–	–	–	–
